Laboratory results reported in US20190133128A1, “Fungicidal pyridazinones” (FMC Corporation, priority 2017, published 2019).

Tests used:
Format in all cases: in vivo
Phakopsora pachyrhizi = assay: Test A: preventive spray on soybean seedlings, Asian soybean rust, visual disease rating; settings: for pest or weed control at 250 ppm: Phakopsora pachyrhizi
Botrytis cinerea = assay: Test C: preventive spray on tomato seedlings, gray mold, visual disease rating; settings: for pest or weed control at 250 ppm: Botrytis cinerea
Excerpt: (§1) General protocol for preparing test solutions for Tests AG: the test compounds were first dissolved in acetone in an amount equal to 3% of the final volume and then suspended at the desired concentration (in ppm) in acetone and purified water (50/50 mix by volume) containing the surfactant PEG400 (polyhydric alcohol esters). The resulting test suspensions were then used in Tests AG. Compounds were sprayed at a concentration of 250 ppm or other indicated rate to the point of run-off on the test plants. The test solution was sprayed to the point of run-off on tomato seedlings. […] A dash (-) indicates no test results.

Phytophthora infestans = assay: whole plant or invertebrate; settings: for Test D disease control rating: tomato seedlings; for pest or weed control at 250 ppm: Phytophthora infestans, in Solanum lycopersicum, read-out: Test D disease control rating
Zymoseptoria tritici = assay: Test E: preventive spray on wheat seedlings, wheat leaf blotch, visual disease rating; settings: for pest or weed control at 250 ppm: Zymoseptoria tritici
Excerpt: as §1, with “wheat” for “tomato”

[1] = system: Puccinia recondita f. sp. tritici; assay: Test F: preventive spray on wheat seedlings, wheat leaf rust, visual disease rating; settings: for pest or weed control at 250 ppm: Puccinia recondita
Excerpt: as §1, with “wheat” for “tomato”, “seedlings. The following day the seedlings were inoculated with a spore suspension of Puccinia recondita f. sp. tritici;” for “seedlings.”

[2] = system: Erysiphe graminis f. sp. tritici; assay: Test G: preventive spray on wheat seedlings, wheat powdery mildew, visual disease rating; settings: for pest or weed control at 250 ppm: Blumeria graminis, 192 h
Excerpt: as §1, with “wheat” for “tomato”

[3] = 250 ppm, 100 = 100% disease control, 0 = no control

| Structure (SMILES) | Test A disease control rating (Phakopsora pachyrhizi; [3]) [%] | Test C disease control rating (Botrytis cinerea; [3]) [%] | Test D disease control rating (Phytophthora infestans; [3]) [%] | Test E disease control rating (Zymoseptoria tritici; [3]) [%] | Test F disease control rating [1, 3] [%] | Test G disease control rating [2, 3] [%] | pest or weed control at 250 ppm (Phakopsora pachyrhizi; [3]) [%] | pest or weed control at 250 ppm (Botrytis cinerea; [3]) [%] | pest or weed control at 250 ppm (Phytophthora infestans) [%] | pest or weed control at 250 ppm (Zymoseptoria tritici; [3]) [%] | pest or weed control at 250 ppm [1, 3] [%] | pest or weed control at 250 ppm [2, 3] [%] | other results |
| --- | --- | --- | --- | --- | --- | --- | --- | --- | --- | --- | --- | --- | --- |
| Cn1ncc(O)c(C(=O)Nc2ccc(F)cc2)c1=O [Compound 40] | 56 | 96 | 73 | 96 | 95 | 92 | – | – | – | – | – | – | – |
| Cn1ncc(Cl)c(C(=O)Nc2ccc(OC(F)(F)F)cc2)c1=O [Compound 41, 5-Chloro-2,3-dihydro-2-methyl-3-oxo-N-[4-(trifluoromethoxy)phenyl]-4-pyridazinecarboxamide] | – | – | – | – | – | – | 87 | 0 | 0 | 97 | 89 | 0 | – |
| Cn1ncc(Br)c(C(=O)Nc2ccc(OC(F)(F)F)cc2)c1=O [Compound 42, 5-Bromo-2,3-dihydro-2-methyl-3-oxo-N-[4-(trifluoromethoxy)phenyl]-4-pyridazinecarboxamide] | – | – | – | – | – | – | 79 | 0 | 0 | 99 | 86 | 0 | – |
| Cn1ncc(Cl)c(C(=O)Nc2ccc(F)cc2)c1=O [Compound 43] | 78 | 79 | 68 | 4 | 97 | 0 | – | – | – | – | – | – | – |
| Cn1ncc(O)c(C(=O)Nc2cccc(-c3ccc(Cl)cc3)c2)c1=O [Compound 44] | 0 | 0 | 0 | 0 | 86 | 0 | – | – | – | – | – | – | – |
| Cn1ncc(O)c(C(=O)Nc2ccc(-c3ccc(F)cc3)cc2)c1=O [Compound 46] | 77 | 16 | 40 | 0 | 80 | 0 | – | – | – | – | – | – | – |
| Cn1ncc(O)c(C(=O)Nc2ccc(OC(F)F)cc2)c1=O [Compound 47, N-[4-(Difluoromethoxy)phenyl]-2,3-dihydro-5-hydroxy-2-methyl-3-oxo-4-pyridazinecarboxamide] | – | – | – | – | – | – | 38 | 0 | 88 | 77 | 99 | 0 | – |
| Cn1ncc(O)c(C(=O)Nc2ccc(S(C)(=O)=O)cc2)c1=O [Compound 49] | 0 | 0 | 0 | 0 | 68 | 0 | – | – | – | – | – | – | – |
| Cn1ncc(O)c(C(=O)Nc2ccc(C(F)(F)F)cc2F)c1=O [Compound 50, N-[2-Fluoro-4-(trifluoromethyl)phenyl]-2,3-dihydro-5-hydroxy-2-methyl-3-oxo-4-pyridazinecarboxamide] | – | – | – | – | – | – | 0 | 85 | 99 | 98 | 100 | 98 | – |
| Cn1ncc(Cl)c(C(=O)Nc2ccc(OC(F)(F)F)cc2F)c1=O [Compound 51] | – | – | – | – | – | – | – | – | – | – | – | – | Test A disease control rating (Phakopsora pachyrhizi; 125 ppm): 99%; Test C disease control rating (Botrytis cinerea; 125 ppm): 97%; Test D disease control rating (Phytophthora infestans; 125 ppm): 57%; Test E disease control rating (Zymoseptoria tritici; 125 ppm): 89%; Test F disease control rating ([1]; 125 ppm): 96%; Test G disease control rating ([2]; 125 ppm): 0% |
| Cn1ncc(Cl)c(C(=O)Nc2ccc(C(F)(F)F)cc2F)c1=O [Compound 52] | – | – | – | – | – | – | – | – | – | – | – | – | Test A disease control rating (Phakopsora pachyrhizi; 160 ppm): 97%; Test C disease control rating (Botrytis cinerea; 160 ppm): 59%; Test D disease control rating (Phytophthora infestans; 160 ppm): 90%; Test E disease control rating (Zymoseptoria tritici; 160 ppm): 99%; Test F disease control rating ([1]; 160 ppm): 99%; Test G disease control rating ([2]; 160 ppm): 39% |
